Source: patent publication US20160158317A1, “Antimicrobial Peptide Variants and Polynucleotides Encoding Same” (Adenium Biotech A/S, priority 2010, published 2016)
Where a SMILES comes first, the peptide text is derived from it. Bridges are numbered along the chain shown (N, C = ends).

Experiment: Determination of the protein binding (90% serum, 30 kDa filter, HPLC)
Format: in vitro ADME
Conditions: serum
Method: Protein binding assays were performed as follows. The purified peptides were mixed with 90% serum and centrifuged through a 30 kDa filter. The ultra-filtrate and the non filtrated serum samples were quantified by HPLC measurements and the protein binding was subsequently calculated.

Row | SMILES | fraction unbound
1 | CC(C)[C@@H]1NC(=O)CNC(=O)[C@H](CC(N)=O)NC(=O)[C@H](CCCNC(=N)N)NC(=O)[C@H](Cc2ccc(O)cc2)NC(=O)[C@H](C(C)C)NC(=O)[C@@H]2CSSC[C@H](NC(=O)[C@H](C(C)C)NC(=O)[C@H](CCCNC(=N)N)NC1=O)C(=O)N[C@@H](Cc1ccc(O)cc1)C(=O)N[C@@H](CCCNC(=N)N)C(=O)N[C@@H](CCCNC(=N)N)C(=O)N[C@H](C(=O)N[C@@H](CC(N)=O)C(=O)O)CSSC[C@H](NC(=O)[C@H](C)NC(=O)CN)C(=O)N[C@@H](Cc1c[nH]c3ccccc13)C(=O)N[C@@H](Cc1ccc(O)cc1)C(=O)N[C@@H](C(C)C)C(=O)N2 [compound 3] (H-GACWYVCVYRNGVRVCYRRCN-OH; disulfide 3-20, 7-16 (inferred); N-terminus and C-terminus assumed) | 0.14
2 | CC(C)[C@@H]1NC(=O)CNC(=O)[C@H](CC(N)=O)NC(=O)[C@H](CCCNC(=N)N)NC(=O)[C@H](Cc2ccc(O)cc2)NC(=O)[C@H](C(C)C)NC(=O)[C@@H]2CSSC[C@H](NC(=O)[C@H](C(C)C)NC(=O)[C@H](CCCNC(=N)N)NC1=O)C(=O)N[C@@H](Cc1ccc(O)cc1)C(=O)N[C@@H](CCCNC(=N)N)C(=O)N[C@@H](CCCNC(=N)N)C(=O)N[C@H](C(=O)N[C@@H](CC(N)=O)C(=O)O)CSSC[C@H](NC(=O)[C@H](Cc1ccccc1)NC(=O)CN)C(=O)N[C@@H](C)C(=O)N[C@@H](Cc1ccc(O)cc1)C(=O)N[C@@H](C(C)C)C(=O)N2 [compound 4] (H-GFCAYVCVYRNGVRVCYRRCN-OH; disulfide 3-20, 7-16 (inferred); N-terminus and C-terminus assumed) | 0.11
3 | CC(C)[C@@H]1NC(=O)CNC(=O)[C@H](CC(N)=O)NC(=O)[C@H](CCCNC(=N)N)NC(=O)[C@H](Cc2ccc(O)cc2)NC(=O)[C@H](C(C)C)NC(=O)[C@@H]2CSSC[C@H](NC(=O)[C@H](C(C)C)NC(=O)[C@H](CCCNC(=N)N)NC1=O)C(=O)N[C@@H](Cc1ccc(O)cc1)C(=O)N[C@@H](CCCNC(=N)N)C(=O)N[C@@H](CCCNC(=N)N)C(=O)N[C@H](C(=O)N[C@@H](CC(N)=O)C(=O)O)CSSC[C@H](NC(=O)[C@H](Cc1ccccc1)NC(=O)CN)C(=O)N[C@@H](CO)C(=O)N[C@@H](Cc1ccc(O)cc1)C(=O)N[C@@H](C(C)C)C(=O)N2 [compound 7] (H-GFCSYVCVYRNGVRVCYRRCN-OH; disulfide 3-20, 7-16 (inferred); N-terminus and C-terminus assumed) | 0.32
4 | CC(C)[C@@H]1NC(=O)CNC(=O)[C@H](CC(N)=O)NC(=O)[C@H](CCCNC(=N)N)NC(=O)[C@H](Cc2ccc(O)cc2)NC(=O)[C@H](C(C)C)NC(=O)[C@@H]2CSSC[C@H](NC(=O)[C@H](C(C)C)NC(=O)[C@H](CCCNC(=N)N)NC1=O)C(=O)N[C@@H](Cc1ccc(O)cc1)C(=O)N[C@@H](CCCNC(=N)N)C(=O)N[C@@H](CCCNC(=N)N)C(=O)N[C@H](C(=O)N[C@@H](CC(N)=O)C(=O)O)CSSC[C@H](NC(=O)[C@H](Cc1ccccc1)NC(=O)CN)C(=O)N[C@@H](Cc1c[nH]c3ccccc13)C(=O)N[C@@H](CCCCN)C(=O)N[C@@H](C(C)C)C(=O)N2 [compound 10] (H-GFCWKVCVYRNGVRVCYRRCN-OH; disulfide 3-20, 7-16 (inferred); N-terminus and C-terminus assumed) | 0.36
5 | CC(C)[C@@H]1NC(=O)CNC(=O)[C@H](CC(N)=O)NC(=O)[C@H](CCCNC(=N)N)NC(=O)[C@H](Cc2ccc(O)cc2)NC(=O)[C@H](C(C)C)NC(=O)[C@@H]2CSSC[C@H](NC(=O)[C@H](C(C)C)NC(=O)[C@H](CCCNC(=N)N)NC1=O)C(=O)N[C@@H](Cc1ccc(O)cc1)C(=O)N[C@@H](CCCNC(=N)N)C(=O)N[C@@H](CCCNC(=N)N)C(=O)N[C@H](C(=O)N[C@@H](CC(N)=O)C(=O)O)CSSC[C@H](NC(=O)[C@H](Cc1ccccc1)NC(=O)CN)C(=O)N[C@@H](Cc1c[nH]c3ccccc13)C(=O)N[C@@H](CC(N)=O)C(=O)N[C@@H](C(C)C)C(=O)N2 [compound 11] (H-GFCWNVCVYRNGVRVCYRRCN-OH; disulfide 3-20, 7-16 (inferred); N-terminus and C-terminus assumed) | 0.27
6 | CC(C)[C@@H]1NC(=O)CNC(=O)[C@H](CC(N)=O)NC(=O)[C@H](CCCNC(=N)N)NC(=O)[C@H](Cc2ccc(O)cc2)NC(=O)[C@H](C(C)C)NC(=O)[C@@H]2CSSC[C@H](NC(=O)[C@H](C(C)C)NC(=O)[C@H](CCCNC(=N)N)NC1=O)C(=O)N[C@@H](Cc1ccc(O)cc1)C(=O)N[C@@H](CCCNC(=N)N)C(=O)N[C@@H](CCCNC(=N)N)C(=O)N[C@H](C(=O)N[C@@H](CC(N)=O)C(=O)O)CSSC[C@H](NC(=O)[C@H](Cc1ccccc1)NC(=O)CN)C(=O)N[C@@H](Cc1c[nH]c3ccccc13)C(=O)N[C@@H](Cc1ccc(O)cc1)C(=O)NCC(=O)N2 [compound 15] (H-GFCWYGCVYRNGVRVCYRRCN-OH; disulfide 3-20, 7-16 (inferred); N-terminus and C-terminus assumed) | 0.04
7 | CC(C)[C@@H]1NC(=O)CNC(=O)[C@H](CC(N)=O)NC(=O)[C@H](CCCNC(=N)N)NC(=O)[C@H](Cc2ccc(O)cc2)NC(=O)[C@H](C(C)C)NC(=O)[C@@H]2CSSC[C@H](NC(=O)[C@H](C(C)C)NC(=O)[C@H](CCCNC(=N)N)NC1=O)C(=O)N[C@@H](Cc1ccc(O)cc1)C(=O)N[C@@H](CCCNC(=N)N)C(=O)N[C@@H](CCCNC(=N)N)C(=O)N[C@H](C(=O)N[C@@H](CC(N)=O)C(=O)O)CSSC[C@H](NC(=O)[C@H](Cc1ccccc1)NC(=O)CN)C(=O)N[C@@H](Cc1c[nH]c3ccccc13)C(=O)N[C@@H](Cc1ccc(O)cc1)C(=O)N[C@@H](CO)C(=O)N2 [compound 19] (H-GFCWYSCVYRNGVRVCYRRCN-OH; disulfide 3-20, 7-16 (inferred); N-terminus and C-terminus assumed) | 0.11
8 | CC(C)[C@@H]1NC(=O)CNC(=O)[C@H](CC(N)=O)NC(=O)[C@H](CCCNC(=N)N)NC(=O)[C@H](Cc2ccc(O)cc2)NC(=O)[C@H](C(C)C)NC(=O)[C@@H]2CSSC[C@H](NC(=O)[C@H](C(C)C)NC(=O)[C@H](CCCNC(=N)N)NC1=O)C(=O)N[C@@H](Cc1ccc(O)cc1)C(=O)N[C@@H](CCCNC(=N)N)C(=O)N[C@@H](CCCNC(=N)N)C(=O)N[C@H](C(=O)N[C@@H](CC(N)=O)C(=O)O)CSSC[C@H](NC(=O)[C@H](Cc1ccccc1)NC(=O)CN)C(=O)N[C@@H](Cc1c[nH]c3ccccc13)C(=O)N[C@@H](Cc1ccc(O)cc1)C(=O)N[C@@H](Cc1c[nH]c3ccccc13)C(=O)N2 [compound 20] (H-GFCWYWCVYRNGVRVCYRRCN-OH; disulfide 3-20, 7-16 (inferred); N-terminus and C-terminus assumed) | 0.01
9 | CC(C)[C@@H]1NC(=O)CNC(=O)[C@H](CC(N)=O)NC(=O)[C@H](CCCNC(=N)N)NC(=O)[C@H](Cc2ccc(O)cc2)NC(=O)[C@H](C)NC(=O)[C@@H]2CSSC[C@H](NC(=O)[C@H](C(C)C)NC(=O)[C@H](CCCNC(=N)N)NC1=O)C(=O)N[C@@H](Cc1ccc(O)cc1)C(=O)N[C@@H](CCCNC(=N)N)C(=O)N[C@@H](CCCNC(=N)N)C(=O)N[C@H](C(=O)N[C@@H](CC(N)=O)C(=O)O)CSSC[C@H](NC(=O)[C@H](Cc1ccccc1)NC(=O)CN)C(=O)N[C@@H](Cc1c[nH]c3ccccc13)C(=O)N[C@@H](Cc1ccc(O)cc1)C(=O)N[C@@H](C(C)C)C(=O)N2 [compound 21] (H-GFCWYVCAYRNGVRVCYRRCN-OH; disulfide 3-20, 7-16 (inferred); N-terminus and C-terminus assumed) | 0.015
10 | CC(C)[C@@H]1NC(=O)CNC(=O)[C@H](CC(N)=O)NC(=O)[C@H](CCCNC(=N)N)NC(=O)[C@H](Cc2ccc(O)cc2)NC(=O)[C@H](Cc2c[nH]cn2)NC(=O)[C@@H]2CSSC[C@H](NC(=O)[C@H](C(C)C)NC(=O)[C@H](CCCNC(=N)N)NC1=O)C(=O)N[C@@H](Cc1ccc(O)cc1)C(=O)N[C@@H](CCCNC(=N)N)C(=O)N[C@@H](CCCNC(=N)N)C(=O)N[C@H](C(=O)N[C@@H](CC(N)=O)C(=O)O)CSSC[C@H](NC(=O)[C@H](Cc1ccccc1)NC(=O)CN)C(=O)N[C@@H](Cc1c[nH]c3ccccc13)C(=O)N[C@@H](Cc1ccc(O)cc1)C(=O)N[C@@H](C(C)C)C(=O)N2 [compound 23] (H-GFCWYVCHYRNGVRVCYRRCN-OH; disulfide 3-20, 7-16 (inferred); N-terminus and C-terminus assumed) | 0.02
11 | CC(C)[C@@H]1NC(=O)CNC(=O)[C@H](CC(N)=O)NC(=O)[C@H](CCCNC(=N)N)NC(=O)[C@H](Cc2ccc(O)cc2)NC(=O)[C@H](CO)NC(=O)[C@@H]2CSSC[C@H](NC(=O)[C@H](C(C)C)NC(=O)[C@H](CCCNC(=N)N)NC1=O)C(=O)N[C@@H](Cc1ccc(O)cc1)C(=O)N[C@@H](CCCNC(=N)N)C(=O)N[C@@H](CCCNC(=N)N)C(=O)N[C@H](C(=O)N[C@@H](CC(N)=O)C(=O)O)CSSC[C@H](NC(=O)[C@H](Cc1ccccc1)NC(=O)CN)C(=O)N[C@@H](Cc1c[nH]c3ccccc13)C(=O)N[C@@H](Cc1ccc(O)cc1)C(=O)N[C@@H](C(C)C)C(=O)N2 [compound 24] (H-GFCWYVCSYRNGVRVCYRRCN-OH; disulfide 3-20, 7-16) | 0.15
12 | CC(C)[C@@H]1NC(=O)CNC(=O)[C@H](CC(N)=O)NC(=O)[C@H](CCCNC(=N)N)NC(=O)[C@H](Cc2ccc(O)cc2)NC(=O)[C@H](Cc2ccc(O)cc2)NC(=O)[C@@H]2CSSC[C@H](NC(=O)[C@H](C(C)C)NC(=O)[C@H](CCCNC(=N)N)NC1=O)C(=O)N[C@@H](Cc1ccc(O)cc1)C(=O)N[C@@H](CCCNC(=N)N)C(=O)N[C@@H](CCCNC(=N)N)C(=O)N[C@H](C(=O)N[C@@H](CC(N)=O)C(=O)O)CSSC[C@H](NC(=O)[C@H](Cc1ccccc1)NC(=O)CN)C(=O)N[C@@H](Cc1c[nH]c3ccccc13)C(=O)N[C@@H](Cc1ccc(O)cc1)C(=O)N[C@@H](C(C)C)C(=O)N2 [compound 25] (H-GFCWYVCYYRNGVRVCYRRCN-OH; disulfide 3-20, 7-16 (inferred); N-terminus and C-terminus assumed) | 0.02
